Experimental data from ChEMBL document CHEMBL1145018, “Molecular basis of the antitumor activities of 2-crotonyloxymethyl-2-cycloalkenones” (J Med Chem, 2003).
pIC50: −log10 of the molar value.

Columns and labels:
Type in all cases: functional, cell-based
HT-29 [1] = assay: Tested for cytotoxicity against HT-29 (wt)cells; conditions: Homo sapiens
HT-29 [2] = assay: Tested for cytotoxicity against HT-29 (MDR)cells; conditions: Homo sapiens
B16 = assay: Tested in vitro growth inhibition against B16 melanotic melanoma cells; conditions: Mus musculus

| pIC50 (B16) | Compound | pIC50 (HT-29 [1]) | pIC50 (HT-29 [2]) |
| --- | --- | --- | --- |
| 7.39 | C/C=C/C(=O)OCC1=CCCCC1=O | 6.10 | 5.74 |
| 6.84 | C/C=C/C(=O)OCC1=CCCC1=O |  |  |
| 7.54 | C/C=C/C(=O)OCC1=CCCCCC1=O |  |  |
|  | CC[C@]1(O)C[C@H]2CN(CCc3c([nH]c4ccccc34)[C@@](C(=O)OC)(c3cc4c(cc3OC)N(C=O)[C@H]3[C@@](O)(C(=O)OC)[C@H](OC(C)=O)[C@]5(CC)C=CCN6CC[C@]43[C@@H]65)C2)C1 [VINCRISTINE] | 9.00 | 7.77 |
